# Experimental data from US7312248B2, “Control of parasites in animals by the use of novel trifluoromethanesulfonanilide oxime ether derivatives” (Schering-Plough Animal Health Corporation, priority 2004, dated 2007).
# Read-outs that look alike come from different tables or passages of the source.
# Key:
# Format in all cases: in vivo
# [1] = tested on: cat flea (Ctenocephalides felis); assay: Ctenocephalides felis adulticide assay: dose response (LC50)
# Excerpt: c) Ctenocephalides felis Adulticide Assay: C. felis Dose Response
# The purpose of this example was to determine the LC50 when cat fleas were contacted with a glass surface treated with sample compounds or formulations prepared as described above. Mortality of fleas was defined as follows: fleas were considered dead if they didn't move or were on their sides and unable to walk or right themselves. LC50: Lethal Concentration 50—concentration of glass surface treatment at which 50% of the cat fleas were killed. The test species was the cat flea (Ctenocephalides felis). The strain used was obtained from external suppliers as pupae and held in the laboratory under testing conditions until the adults had emerged. Fifteen (15) fleas were used in a minimum of four replicates for each dose level (total of 60 fleas per dose level). The insects were selected to be in the adult life stage, aged between 3 and 7 days post emergence.
# The compounds to be tested were dissolved in acetone just prior to testing. Samples of compounds were stored in a refrigerator (5±1° C.) unless otherwise specified. During the mortality testing, the temperature was maintained at 25+1° C. Humidity was maintained at 75±5%. The base (area=159 mm^2) of a 100 mL glass Erlenmeyer (conical) flask provided the treatment surface. Flasks were pretreated with Coatasil™ glass treatment to maximise bio-availability of test compounds by preventing them from binding to the glass surface.
# Six dose levels (concentrations) of test sample, in the form of a serial dilution, were derived from a pilot study and covered a range that produced very low to very high mortality. The base of the 100 mL Erlenmeyer flask was treated with 0.5 mL of test sample in acetone and gently swirled. This volume was sufficient to cover the base of the flask. Flasks were left to dry for 24 hours before flea exposure. Adult cat fleas were lightly anaesthetised by cooling and then placed into a sorting chamber, which allowed fleas to revive and jump into the Erlenmeyer flasks. Fifteen (15)adult cat fleas were collected in each flask. The top of the flasks were then covered in Parafilm™ and small holes made to allow gas exchange. A 0.5 mL volume of acetone was applied to the base of an Erlenmeyer flask and the testing proceeded in the same manner described above. Cat fleas in the treatment containers were held under testing conditions for 24 hours. Mortality resulting from the treatments was recorded at 8 and 24 hours.
# [2] = tested on: cat flea (Ctenocephalides felis); assay: whole plant or invertebrate; details: Ctenocephalides felis
# Outline: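 Single-dose screen at 1.26 μg/cm^2: acetone solution dried for 24 h on a Coatasil-treated 159 mm^2 flask base, then 15 adult cat fleas aged 3-7 days per flask, four or more replicates, acetone control. Percent dead, meaning not moving or unable to right themselves, recorded after 8, 24 and/or 48 h at 25 °C and 75% RH.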
# [3] = tested on: Brown Dog Tick (Rhipicephalus sanguineus); assay: Dose response protocol for topical application on brown dog ticks (LD50); details: 24 h mortality
# Method: e) Dose response protocol for topical application on brown dog ticks (Rhipicephalus sanguineus): The test determines the level of insecticidal activity of sample compounds or formulations when applied topically on brown dog ticks. Sample compounds were stored prior to use in a freezer (−5±1° C.), unless otherwise specified.
# • Mortality: A tick is defined as dead after it gives no apparent response when touched lightly or gently breathed upon, while observed for 30 seconds. • LD50 (Lethal Dose 50): The dose of a topically applied treatment at which 50% of the dog ticks are killed. • Reference compound: To assess an experimental compound for significant acaricidal activity a single dose level is chosen, which is based upon known results from previous experiments using a commercially available active i.e., a reference compound. The reference compound selected is one in common use, and one that has a similar mode of action against the Brown Dog Tick (i.e., the test species). • Recovery container: A recovery container consists of a 500 ml round plastic container measuring 115 mm diameter and 70 mm height, with a tight fitting lid that has 10 small (˜1 mm) holes inserted for air exchange. A 90 mm diameter piece of filter paper was placed on the bottom of the container and moistened with 1 mL of de-stilled water.
# Adult, mixed sex, Brown Dog Ticks (Rhipicephalus sanguineus) were reared as follows: (i) cultured, (ii) transferred unfed, to a testing laboratory, and (iii) then maintained under controlled conditions (i.e., temp. 18°±2° C., humidity 75±5% RH). The ticks used were selected for vigor prior to testing, i.e., capable of actively walking and responsive to being touched or gently breathed upon.
# During the testing, the temperature was maintained at 25±1° C., and the humidity was ambient. Seven dose levels (concentrations) of sample compound, in the form of serial dilutions in acetone, were derived from a pilot study and covered a range that produced very low to very high mortality. Groups of ten ticks were treated topically (on the abdomen) with 1 μL of a single dose level of the sample compound. Each test was replicated four times, i.e., employing a total of 40 ticks per dose level of each sample compound. As a control, ten ticks were treated with solvent only (acetone) for each test. Following the treatment, the ticks were held in recovery containers maintained under appropriate rearing conditions for 24 hours. Mortality resulting from the treatments was recorded at 24 hours. […] Press, London (1971).]
# Haemonchus contortus = Haemonchus contortus larvacidal (larval development) assay; details: 144 h, read-out: Haemonchus contortus LD99
# Outline: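 Nematode eggs placed on agar containing compound (12 two-fold dilutions, final 0.024–50 μg/ml) and left 6 days to develop to L3. LD99 is the lowest concentration inhibiting development of 99% of larvae, derived from well titre (2^n−1) and top concentration.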
# [4] = tested on: Brown Dog Tick (Rhipicephalus sanguineus); assay: Rapid screening protocol for topical application on brown dog ticks; details: 48 h; Laboratory 2 F data
# Method: d) Rapid Screening Protocol for Topical Application on Brown Dog Ticks (Rhipicephalus sanguineus)
# The aim of the test was to determine the presence of significant acaricidal activity in sample compounds or formulations when applied topically on brown dog ticks. A tick was defined as dead if it gave no apparent response when touched lightly and observed for 1 minute. […] Both permethrin and fipronil were employed as reference compounds. The insect species tested was the Brown Dog Tick (Rhipicephalus sanguineus). Mixed sex adult ticks were used for tests. The strain used was cultured by von Berky Veterinary Services, Woody Point, QLD, AU and supplied as unfed adult ticks (mixed sex). Ticks were maintained in controlled conditions (temp. 18°+2° C., humidity 75±5% RH).
# Temperature was maintained at 25±1° C. and the humidity was ambient. […] Ticks were each treated on the abdomen with 1 μL of a single dose level of test sample in acetone; ten ticks were treated with solvent only (acetone) in each test. Tests were replicated 4 times (total of 40 ticks treated). […]
# [5] = 24 h, read-out: C. felis Mortality (%) 24 h, 24 h, Laboratory 2 B data
# [6] = 48 h, read-out: C. felis Mortality (%) 48 h, 48 h, Laboratory 2 B data
# [7] = 24 h, read-out: C. felis Mortality (%) 24 h, 24 h, Laboratory 1 A data
# [8] = 8 h, read-out: C. felis Mortality (%) 8 h, 8 h, Laboratory 1 A data
Compound,C. felis LC50 ([1]; Laboratory 2 D data),"mortality at 1.26 µg/cm2, 1.26 µg/cm2 [2, 5]","mortality at 1.26 µg/cm2, 1.26 µg/cm2 [2, 6]",R. sanguineus LD50 [3],C. felis LC50 ([1]; Laboratory 1 C data),"mortality at 1.26 µg/cm2, 1.26 µg/cm2 [2, 7]","mortality at 1.26 µg/cm2, 1.26 µg/cm2 [2, 8]",IC99 (Haemonchus contortus),R. sanguineus Mortality (%) 48 h [4]
CC(C)=CCO/N=C(\C)c1cc(Cl)ccc1NS(=O)(=O)C(F)(F)F [Compound 249],1.3^D μg/cm^2,100%,100%,3.3 μg/tick,,,,,
"CCON=C(c1ccccc1)c1cc(Cl)ccc1NS(=O)(=O)C(F)(F)F (single isomer, unassigned) [Compound 177, N-[4-chloro-2-(ethoxyiminophenylmethyl)phenyl]trifluoromethanesulfonamide]",,,,17.6 μg/tick,0.3 μg/cm^2,100%,,,
CC/C(=N\OCc1ccc(Br)cc1)c1cc(Cl)ccc1NS(=O)(=O)C(F)(F)F [Compound 75],,,,,0.3 μg/cm^2,78%,37%,0.9 µg/mL,77%
C/C(=N\OC(C)C)c1ccc(C(F)(F)F)cc1NS(=O)(=O)C(F)(F)F [Compound 235],0.2^D μg/cm^2,100%,100%,2.3 μg/tick,,,,,
CCCCO/N=C(\CC)c1cc(Cl)ccc1NS(=O)(=O)C(F)(F)F [Compound 245],0.09^D μg/cm^2,100%,100%,3.9 μg/tick,,,,,
C/C(=N\Oc1cccc(Cl)c1)c1cc(Cl)ccc1NS(=O)(=O)C(F)(F)F [Compound 132],,,,,0.2 μg/cm^2,100%,,1.6 µg/mL,80%
C/C(=N\OC1C=CCCC1)c1cc(Cl)ccc1NS(=O)(=O)C(F)(F)F (centres unmarked) [Compound 175],,,,4.0 μg/tick,0.1 μg/cm^2,100%,,,
CC/C(=N\OC1CCCCC1)c1cc(Cl)ccc1NS(=O)(=O)C(F)(F)F [Compound 157],,,,5.7 μg/tick,0.3 μg/cm^2,100%,,,
"C=CCO/N=C(\C)c1ccc(C(F)(F)F)cc1NS(=O)(=O)C(F)(F)F [Compound 241, N-[2-(1-allyloxyiminoethyl)-5-trifluoromethylphenyl]trifluoromethanesulfonamide]",0.1^D μg/cm^2,100%,100%,1.9 μg/tick,,,,,
CCCCO/N=C(\C)c1cc(Cl)ccc1NS(=O)(=O)C(F)(F)F [Compound 244],0.07^D μg/cm^2,100%,100%,3.0 μg/tick,,,,,
CCC(CC)O/N=C(\C)c1cc(Cl)ccc1NS(=O)(=O)C(F)(F)F [Compound 174],,,,2.9 μg/tick,0.1 μg/cm^2,100%,,,
"CC/C(=N\OCC1CCCCC1)c1cc(Cl)ccc1NS(=O)(=O)C(F)(F)F [Compound 104, N-[4-chloro-2-(1-cyclohexylmethoxyiminopropyl)phenyl]trifluoromethanesulfonamide]",1.6 μg/cm^2,,,,0.3 μg/cm^2,100%,,10 µg/mL,100%
"CC/C(=N\OCc1ccc(C(F)(F)F)cc1C(F)(F)F)c1cc(Cl)ccc1NS(=O)(=O)C(F)(F)F [Compound 76, N-{2-[1-(2,4-bistrifluoromethylbenzyloxyimino)propyl]-4-chlorophenyl}trifluoromethanesulfonamide]",0.05 μg/cm^2,,,,0.2 μg/cm^2,,100%,0.3 µg/mL,80%
CC/C(=N\OCc1ccccc1C(F)(F)F)c1cc(Cl)ccc1NS(=O)(=O)C(F)(F)F [Compound 6],0.03 μg/cm^2,,,,0.1 μg/cm^2,96%,69%,1.3 µg/mL,82%
"CC/C(=N\Oc1ccc(Cl)cc1)c1cc(Cl)ccc1NS(=O)(=O)C(F)(F)F [Compound 128, N-{4-chloro-2-[1-(4-chlorophenoxyimino)propyl]phenyl}trifluoromethanesulfonamide]",0.05 μg/cm^2,,,,0.08 μg/cm^2,100%,,0.4 µg/mL,85%
"CCO/N=C(\c1ccccc1)c1cc(Cl)ccc1NS(=O)(=O)C(F)(F)F [Compound 178, N-[4-chloro-2-(ethoxyiminophenylmethyl)phenyl]trifluoromethanesulfonamide]",,,,,0.3 μg/cm^2,96%,,,85%
